From patent US10456550B2, “Device and method for controlling respiration during sleep” (Yeda Research and Development Co. Ltd., priority 2010, dated 2019)

Assays:
healthy subjects [1] = test: Arousal and wake-up frequency after odorant presentation during sleep (polysomnography); type: in vivo, human; conditions: odor vs clean-air baseline, across sleep stages; 5-20 s stimuli, 50% odor concentration
Excerpt: (§1) Odorants were delivered with a computer-controlled air dilution olfactometer built according to principals described in Sobel et al. 1997; Johnson and Sobel 2007 which are incorporated herein by reference. Room air (3 Liter per minute) was mixed with the odorized air (3 liter per minute), resulting in odor concentration of 50%. The odorant line culminated at a small nasal mask that was subserved by a vacuum line pulling at the same rate of airflow. This provided an odor environment at the nose where odorant onset and offset occurred within 2 and 260 ms, respectively, with no visual, auditory, tactile, humidity, or thermal cues as to the alteration. In other words, the odorant stimulus was not a puff of air but rather a block of odorant embedded within an airflow that was constant for the duration of the study. The olfactometer itself was located in a room adjacent to the sleep room, and only the airflow tubing crossed into the sleep room via a wave guide within the stainless steel-coated wall. This provided additional separation from any possible visual or auditory stimulation associated with the olfactometer (e.g., LEDs on its front panel, etc.).
Physiological measurements were recorded using a Power-Lab 16SP Monitoring System (ADInstruments) running off a Macintosh G4 computer using a sampling rate of 1000 Hz and a 50-Hz notch filter to remove electrical artifacts. For all measures dependent on electrodes, the scalp surface was cleaned with mild abrasive gel (Nuprep gel, Aurora) in order to assist in lowering impedance at the electrode site. For pasted to electrodes on the rest of the body, the skin surface was also first cleaned with alcohol. The following measures were recorded:
Electroencephalogram (EEG) was obtained through 2 circular electrodes ([…]) that were located at positions C3 and C4 according to the 10-20 system and were referenced to electrodes on the opposite mastoids (A2 and A1, respectively). Signals were amplified using a preamplifier (Octal Bio Amp ML138, ADInstruments).
Electromyogram (EMG) was obtained through 2 circular Ag/AgCl conductive adhesive electrodes (0.9 cm diameter). The electrodes were located bilaterally adjacent to the submentalis muscles. Signals were amplified using a preamplifier (Octal Bio Amp ML138, ADInstruments). […]
Blood oxygination (SpO2) was measured with an oxymeter (MLT321 SpO2 Finger Clip Sensor, ADInstruments) embedded within a finger clip placed on the left index finger.
Sleep stages were scored off-line according to the R and K criteria (Rechtschaffen and Kales 1968). […]
The experimenters observed the real-time polysomnography reading, and 20 min after they determined that the subject had entered stage 2 sleep, they initiated the experimental protocol that from this point on was computer controlled. […]

healthy subjects [2] = test: Respiration (inhale/exhale volume) after odorant presentation during sleep; type: in vivo, human; conditions: for inhale/exhale volume ratio following odor presentation in comparison to baseline: nasal respiration, across all sleep stages; for difference in respiration volume ratio across sleep stages: repeated measures ANOVA between sleep stages
Excerpt: as §1
Overall respiration was computed as a reflection of changes in thoracic respiration and abdominal respiration circumference measured using 2 piezoelectric respiratory belt transducers (1132 Pneumotrace II, UFI).
Nasal and Oral respiration was measured using separate pneumotachometers (high-sensitivity flowmeter model #4719, Hans Rudolph, Inc.) that were attached in line with the vent ports of the mask. The pneumotachometer differential pressure was measured and converted to a voltage signal using a spirometer (ML141, ADInstruments) that delivered the voltage to the instrumentation amplifier.
The effects of odorants on 4 breath parameters were tested: breath mean airflow velocity, breath maximum airflow velocity, breath volume, and breath duration. Breath volume was calculated by the trapezoidal Reimann sum method (Johnson et al. 2006). Breaths were aligned in time by setting the point at which the breath passed from the expiratory phase to the inspiratory phase as time 0.
The experimenters observed the real-time polysomnography reading, and 20 min after they determined that the subject had entered stage 2 sleep, they initiated the experimental protocol that from this point on was computer controlled. Every 9, 12, or 15 min (randomized), the olfactometer generated a 5-, 10-, or 20-s (randomized) odor stimulus. […] Upon spontaneous morning wake-up, subjects again rated the intensity and pleasantness of the odorant and were then debriefed, paid, and released.
Averages of respiration measurements for inhalation, exhalation, and inhalation/exhalation ratio in the 30 breaths before odor onset were compared with the averages of respiration measurements for inhalation, exhalation, and inhalation/exhalation ratio for each one of 6 breaths after odor onset across sleep stages per odorant and for all odorants together. This analysis was corrected for the 6 comparisons using a Bonferroni correction. Respiratory measurements were compared between sleep stages per odorant in a repeated measures ANOVA.
The second alternative is that, although oral respiration typically reflects only; 4% of overall respiration in sleep (Fitzpatrick et al. 2003), the odorant may have changed the balance between nasal and oral breathing such that oral inspiration increased. Under this scenario, the increase in nasal exhalation reflected an increase in oral inspiration rather than the exhalation of air stored in the lungs. The above data could not discriminate between these alternatives because it relied on accurate measurement of nasal respiration alone. An additional control group of 10 subjects were studied using the odorant vetiver oil that in addition to the nasal mask were fitted with an oral mask in order to accurately measure oral and nasal respiration simultaneously.

humans = conditions: selective trigeminal irritant during nocturnal sleep; cited from earlier work
8-day-old rats = conditions: cited from earlier work
[3] = first breath after dispersion, worded 'may' in the description

## COc1cc(C=O)ccc1O [vanillin]
Healthy subjects [1]
  effect of odor on arousal frequency: no effect of odor on arousal
  effect of odor on wake-up frequency: no effect of odor on wake-up
Healthy subjects [2]; [3]
  decrease of inhalation volume: about 23%
  increase of exhalation volume: about 6%
Healthy subjects [2]; first breath after odor onset, worded 'may' in the description
  reduction of nasal inhalation/exhalation volume ratio: about 27%
Healthy subjects [2]
  inhale/exhale volume ratio following odor presentation in comparison to baseline: significantly smaller
  difference in respiration volume ratio across sleep stages: no difference
Healthy subjects [2]; sixth breath after odor onset, worded 'may' in the description
  reduction of nasal inhalation/exhalation volume ratio: about 5%

## [NH4+].[NH4+].[S-2] [ammonium sulfide]
Healthy subjects [1]
  effect of odor on arousal frequency: no effect of odor
  effect of odor on wake-up frequency: no effect of odor on wake-up
Healthy subjects [2]
  inhale/exhale volume ratio following odor presentation in comparison to baseline: significantly smaller
  difference in respiration volume ratio across sleep stages: no difference

## O=C=O [CO2]
humans
  arousal frequency: concentration-dependent increase in arousal frequency

## CSSC [DMDS, dimethyl disulfide]
8-day-old rats; 8-day-old rats presented with odorant
  sniffing during sleep: sniffing, including polypnea, occurred while the rats were asleep
8-day-old rats; sleeping 8-day-old rats
  arousal responses: did not evoke reliable arousal responses
